In the assay the target is T1, PDGF-receptor beta enzyme comprising the tyrosine kinase domain (Homo sapiens, UniProt P09619).
T1 construct: from amino acid 545 to 1106 of GenBank Access NO: AAA36427
Briefly: Inhibition of PDGF-receptor kinase activity (cell-free, PLC1 peptide, 33P Flashplate). Conditions: for inhibition at 10 µM: read-out: Percent Inhibition @ 10 uM. The assay is classed as biochemical. Summed up:
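Recombinant kinase domain (aa 545–1106) phosphorylated a biotinylated PLC1 peptide with 5 μM ATP plus 33P-γ-ATP, in Tris pH 8, MgCl2, Na3VO4 and 1 mM DTT, for 60 min at 30 °C. Retained 33P was counted after washing. IC50 is the concentration halving activity versus no-inhibitor reactions.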

The mark [1] stands for this setting: PDGF-R kinase activity, compound at 10 uM.
Where [2] appears, read: PDGF-R kinase activity, read-out: IC50.
[3] abbreviates: read-out: IC50 (μM) on PDGF-R kinase activity.

Where two headings read alike, the source gives them in different places.

T1 sequence (P09619 545-1106): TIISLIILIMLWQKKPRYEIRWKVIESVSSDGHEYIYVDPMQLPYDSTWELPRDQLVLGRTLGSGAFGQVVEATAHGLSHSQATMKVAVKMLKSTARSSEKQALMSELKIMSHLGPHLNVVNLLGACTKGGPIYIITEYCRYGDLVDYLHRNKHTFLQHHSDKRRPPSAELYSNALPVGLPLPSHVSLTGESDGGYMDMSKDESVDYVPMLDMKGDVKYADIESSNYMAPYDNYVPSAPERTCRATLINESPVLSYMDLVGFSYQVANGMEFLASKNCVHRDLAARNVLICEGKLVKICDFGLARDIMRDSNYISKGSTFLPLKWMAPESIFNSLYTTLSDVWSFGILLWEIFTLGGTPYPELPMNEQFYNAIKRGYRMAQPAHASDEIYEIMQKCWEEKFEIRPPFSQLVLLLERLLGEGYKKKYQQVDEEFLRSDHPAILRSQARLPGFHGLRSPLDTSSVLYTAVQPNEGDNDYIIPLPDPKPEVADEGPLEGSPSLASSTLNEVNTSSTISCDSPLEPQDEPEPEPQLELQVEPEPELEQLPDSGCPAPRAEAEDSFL

By inhibition is commonly meant the relative decrease from the control value, in per cent. Broadly, the IC50 is the concentration needed to halve the response being measured. For `Fc1ccc2c(c1)Cc1c-2n[nH]c1Nc1ccc2[nH]ccc2c1` [Compound 290, (6-Fluoro-2,4-dihydro-indeno[1,2-c]pyrazol-3-yl)-(1H-indol-5-yl)-amine], the inhibition at 10 µM under setting [1] came to 87.5%. The IC50 under setting [2] was found to be 0.0614 µM.

`COc1ccc(CNc2[nH]nc3c2Cc2cc(OC)c(OC)cc2-3)cc1` [Compound 231, (6,7-Dimethoxy-2,4-dihydro-indeno[1,2-c]pyrazol-3-yl)-(4-methoxy-benzyl)-amine]: the inhibition at 10 µM under setting [1] was 37%.

In the case of `CCOc1cc2c(cc1OCC)-c1n[nH]c(NCc3c(Cl)cccc3Cl)c1C2` [Compound 295, (2,6-Dichloro-benzyl)-(6,7-diethoxy-2,4-dihydro-indeno[1,2-c]pyrazol-3-yl)-amine], the inhibition at 10 µM under setting [1] was found to be 81.5%. Further, the IC50 under setting [2] is 0.00164 µM.

In the case of `CCOc1cc2c(cc1OCC)-c1n[nH]c(NCc3ccccc3OC)c1C2` [Compound 296, (6,7-Diethoxy-2,4-dihydro-indeno[1,2-c]pyrazol-3-yl)-(2-methoxy-benzyl)-amine], the inhibition at 10 µM under setting [1] is 72.5%. Besides, under setting [2], the IC50 turned out to be 1.82 µM.

Turning to `COc1cc2c(cc1OC)-c1n[nH]c(N(c3cccc(F)c3)[C@@H]3O[C@H](C(=O)O)[C@@H](O)[C@H](O)[C@H]3O)c1C2` [Compound 591, 6-[(6,7-Dimethoxy-2,4-dihydro-indeno[1,2-c]pyrazol-3-yl)-(3-fluoro-phenyl)-amino]-3,4,5-trihydroxy-tetrahydro-pyran-2-carboxylic acid], under setting [1], the inhibition at 10 µM turned out to be 96%. Also, the IC50 under setting [3] was 0.662 µM.

For the molecule `COc1ccc(OC)c(Nc2[nH]nc3c2Cc2c(OC)cccc2-3)c1` [Compound 147, (2,5-Dimethoxy-phenyl)-(5-methoxy-2,4-dihydro-indeno[1,2-c]pyrazol-3-yl)-amine], the inhibition at 10 µM under setting [1] was determined as 32%. Also, under setting [2], the concentration for half-maximal inhibition (IC50) worked out at 2.98 µM.

On to `COc1cc2c(cc1OC)C(C)c1c-2n[nH]c1Nc1cccc(Br)c1` (single isomer, unassigned) [Compound 568, *S-(3-Bromo-phenyl)-(6,7-dimethoxy-4-methyl-2,4-dihydro-indeno[1,2-c]pyrazol-3-yl)-amine], for which, under setting [1], the inhibition at 10 µM was found to be 78%. Besides, under setting [2], the IC50 was 0.79 µM.

As for `COCCCOc1ccc2c(c1)Cc1c-2n[nH]c1Nc1ccc(F)cc1` [Compound 136, (4-Fluoro-phenyl)-[6-(3-methoxy-propoxy)-2,4-dihydro-indeno[1,2-c]pyrazol-3-yl]-amine], under setting [1], the inhibition at 10 µM came out at 64.5%. For the same molecule, the IC50 under setting [2] is 1.33 µM.

As to `COc1cc2c(cc1OC)-c1n[nH]c(NCc3ccc(C)cc3)c1C2` [Compound 222, (6,7-Dimethoxy-2,4-dihydro-indeno[1,2-c]pyrazol-3-yl)-(4-methyl-benzyl)-amine], under setting [1], the inhibition at 10 µM worked out at 70%. In addition, under setting [2], the IC50 was 0.806 µM.

As to `COc1cc2c(cc1OC)-c1n[nH]c(Nc3ccccc3Br)c1C2` [Compound 43, (2-Bromo-phenyl)-(6,7-dimethoxy-2,4-dihydro-indeno[1,2-c]pyrazol-3-yl)-amine], the inhibition at 10 µM under setting [1] came out at 60%. Under setting [2], the IC50 was 0.195 µM.

In the case of `Fc1ccc2c(c1)Cc1c-2n[nH]c1Nc1cc(F)ccc1F` [Compound 236, (2,5-Difluoro-phenyl)-(6-fluoro-2,4-dihydro-indeno[1,2-c]pyrazol-3-yl)-amine], under setting [1], the inhibition at 10 µM turned out to be 82%. The IC50 under setting [2] is 0.005 µM.

Turning to `COc1cc2c(c(Cc3ccccc3)c1O)-c1n[nH]c(Nc3cccc(F)c3)c1C2` [Compound 606, 8-Benzyl-3-(3-fluoro-phenylamino)-6-methoxy-2,4-dihydro-indeno[1,2-c]pyrazol-7-ol], under setting [1], the inhibition at 10 µM was 53.5%.

For the molecule `COc1cc2c(cc1OC)-c1n[nH]c(NCCN3CCOCC3)c1C2` [Compound 69, (6,7-Dimethoxy-2,4-dihydro-indeno[1,2-c]pyrazol-3-yl)-(2-morpholin-4-yl-ethyl)-amine], under setting [1], the inhibition at 10 µM was determined as 18%.

Turning to `COc1ccc(OC)c(Nc2[nH]nc3c2Cc2c(C)cccc2-3)c1` [Compound 101, (2,5-Dimethoxy-phenyl)-(5-methyl-2,4-dihydro-indeno[1,2-c]pyrazol-3-yl)-amine], the inhibition at 10 µM under setting [1] was 52%. The IC50 under setting [2] is 1.09 µM.

For `COCCCOc1ccc2c(c1)Cc1c-2n[nH]c1Nc1cccc(C(=O)OC)c1` [Compound 137, 3-[6-(3-Methoxy-propoxy)-2,4-dihydro-indeno[1,2-c]pyrazol-3-ylamino]-benzoic acid methyl ester], under setting [1], the inhibition at 10 µM was 71%. Further, the IC50 under setting [2] was found to be 2.11 µM.

Take `COc1cc2c(cc1F)Cc1c-2n[nH]c1Nc1cccc(F)c1` [Compound 357, (6-Fluoro-7-methoxy-2,4-dihydro-indeno[1,2-c]pyrazol-3-yl)-(3-fluoro-phenyl)-amine]: the inhibition at 10 µM under setting [1] came out at 98.5%. In addition, the IC50 under setting [2] stood at 0.00942 µM.

Take `COc1ccc(Nc2[nH]nc3c2Cc2cc(OC)c(OC)cc2-3)cc1` [Compound 6, (6,7-Dimethoxy-2,4-dihydro-indeno[1,2-c]pyrazol-3-yl)-(4-methoxy-phenyl)-amine]: under setting [1], the inhibition at 10 µM is 75%. In addition, the IC50 under setting [2] was determined as 0.131 µM.

In the case of `COc1cc2c(cc1OC)C(C)(C)c1c-2n[nH]c1Nc1cccc(Br)c1` [Compound 485, (3-Bromo-phenyl)-(6,7-dimethoxy-4,4-dimethyl-2,4-dihydro-indeno[1,2-c]pyrazol-3-yl)-amine], the inhibition at 10 µM under setting [1] turned out to be 32%. Besides, under setting [2], the IC50 was 59 µM.

As for `COc1ccc(Nc2[nH]nc3c2Cc2ccc(OC)cc2-3)c(OC)c1` [Compound 175, (2,4-Dimethoxy-phenyl)-(7-methoxy-2,4-dihydro-indeno[1,2-c]pyrazol-3-yl)-amine], the inhibition at 10 µM under setting [1] worked out at 71%. Besides, the half-maximal inhibitory concentration (IC50) under setting [2] was 3.93 µM.

As to `COc1cc2c(cc1OC)-c1n[nH]c(Nc3cc(Cl)cc(Cl)c3)c1C2` [Compound 19, (3,5-Dichloro-phenyl)-(6,7-dimethoxy-2,4-dihydro-indeno[1,2-c]pyrazol-3-yl)-amine], under setting [1], the inhibition at 10 µM came out at 91%. Besides, the IC50 under setting [2] was 0.174 µM.

For `COc1ccc(OC)c(Nc2[nH]nc3c2Cc2ccc(C)cc2-3)c1` [Compound 184, (2,5-Dimethoxy-phenyl)-(7-methyl-2,4-dihydro-indeno[1,2-c]pyrazol-3-yl)-amine], the inhibition at 10 µM under setting [1] amounted to 94%. In addition, under setting [2], the IC50 was found to be 1.1 µM.

`COc1ccc(Cl)cc1Nc1[nH]nc2c1Cc1cc(OC)c(OC)cc1-2` [Compound 56, (5-Chloro-2-methoxy-phenyl)-(6,7-dimethoxy-2,4-dihydro-indeno[1,2-c]pyrazol-3-yl)-amine]: the inhibition at 10 µM under setting [1] was 36%. For the same molecule, the IC50 under setting [2] amounted to 8.4 µM.

Turning to `COc1cc2c(cc1OC)-c1n[nH]c(Nc3c(F)cc(F)cc3F)c1C2` [Compound 477, (6,7-Dimethoxy-2,4-dihydro-indeno[1,2-c]pyrazol-3-yl)-(2,4,6-trifluoro-phenyl)-amine], the inhibition at 10 µM under setting [1] turned out to be 95%. Also, the IC50 under setting [2] is 0.229 µM.

Consider `COC(=O)c1cccc(Nc2[nH]nc3c2Cc2cc4c(cc2-3)OCO4)c1` [Compound 127, 3-(2,9-Dihydro-5,7-dioxa-2,3-diaza-cyclopenta[a]-s-indacen-1-ylamino)-benzoic acid methyl ester], for which the inhibition at 10 µM under setting [1] is 89%. The IC50 under setting [2] came to 0.421 µM.

With `COc1cc2c(cc1OC)-c1n[nH]c(Nc3ncc(Br)cc3C)c1C2` [Compound 576, (5-Bromo-3-methyl-pyridin-2-yl)-(6,7-dimethoxy-2,4-dihydro-indeno[1,2-c]pyrazol-3-yl)-amine], under setting [1], the inhibition at 10 µM amounted to 18%. Also, the 50% inhibitory concentration (IC50) under setting [3] was 33.3 µM.

Take `COCC(=O)OCC(=O)n1nc(Nc2cccc(F)c2)c2c1-c1cc(OC)c(OC)cc1C2` [Compound 473, Methoxy-acetic acid 2-[3-(3-fluoro-phenylamino)-6,7-dimethoxy-4H-indeno[1,2-c]pyrazol-1-yl]-2-oxo-ethyl ester]: the inhibition at 10 µM under setting [1] is 98.5%. Besides, the IC50 under setting [2] worked out at 0.00896 µM.

Take `Clc1ccc(Nc2[nH]nc3c2Cc2ccccc2-3)cc1` [Compound 3, (4-Chloro-phenyl)-(2,4-dihydro-indeno[1,2-c]pyrazol-3-yl)-amine]: under setting [1], the inhibition at 10 µM is 90%. Moreover, under setting [2], the IC50 stood at 0.157 µM.

With `OCCCOc1cccc2c1Cc1c-2n[nH]c1NCc1ccccc1F` [Compound 444, 3-[3-(2-Fluoro-benzylamino)-2,4-dihydro-indeno[1,2-c]pyrazol-5-yloxy]-propan-1-ol], under setting [1], the inhibition at 10 µM stood at 79.5%. Besides, under setting [2], the IC50 is 0.518 µM.

Regarding `Fc1ccc(Nc2[nH]nc3c2Cc2sccc2-3)cc1Cl` [Compound 404, (3-Chloro-4-fluoro-phenyl)-(5,7-dihydro-1-thia-4,5-diaza-cyclopenta[a]pentalen-6-yl)-amine], the inhibition at 10 µM under setting [1] worked out at 74.5%. Moreover, the IC50 under setting [2] was 1.11 µM.

Take `FC(F)(F)c1ccc(Nc2[nH]nc3c2Cc2cc(Cl)ccc2-3)cc1` [Compound 193, (6-Chloro-2,4-dihydro-indeno[1,2-c]pyrazol-3-yl)-(4-trifluoromethyl-phenyl)-amine]: under setting [1], the inhibition at 10 µM amounted to 49%.

Turning to `COc1cc2c(cc1OC)-c1n[nH]c(Nc3ccc(Br)cc3C(F)(F)F)c1C2` [Compound 76, (4-Bromo-2-trifluoromethyl-phenyl)-(6,7-dimethoxy-2,4-dihydro-indeno[1,2-c]pyrazol-3-yl)-amine], the inhibition at 10 µM under setting [1] amounted to 16%. Besides, the IC50 under setting [2] is more than 50 µM.

Take `CCOc1cccc(Nc2[nH]nc3c2C(CC)c2cc(OC)c(OC)cc2-3)c1` (single isomer, unassigned) [Compound 556, (3-Ethoxy-phenyl)-(4-ethyl-6,7-dimethoxy-2,4-dihydro-indeno[1,2-c]pyrazol-3-yl)-amine]: where the note is “PDGF-R kinase activity, compound at 10 uM, 10 µM”, the “Percent Inhibition @ 10 uM” value was determined as 98%. Further, the IC50 under setting [2] was 0.0104 µM.
